Data on 6 compounds can be found in publication PMC8199578, “Anti-Inflammatory, Antiallergic, and COVID-19 Main Protease (M^pro) Inhibitory Activities of Butenolides from a Marine-Derived Fungus Aspergillus terreus” (Molecules, 2021).

Where two headings read alike, the source gives them in different places. A value given as a limit tells only on which side of the number the result lay.

Data set [1] deals with RBL-2H3 cells. Put plainly: A23187-induced degranulation (β-hexosaminidase release) assay. The data set is classed as cell-based. The note with it: Rattus norvegicus; for IC50: RBL-2H3, read-out: Inhibition of A23187-Induced Degranulation IC50. The method, then: (§1) The mucosal mast-cell-derived rat basophilic leukemia cells (RBL-2H3) were purchased from Bioresource Collection and Research Center (Hsin-Chu, Taiwan). The cells were cultured in DMEM containing 10% FBS, 100 U/mL penicillin, and 100 μg/mL streptomycin in 10 cm cell culture dishes at 37 °C in a humidified chamber with 5% CO2 in air. The level of degranulation in RBL-2H3 cells was evaluated using β-hexosaminidase release assay induced by A23187 or antigen as reported before with some modifications. Briefly, the cells were seeded in a 96-well plate (2 × 10^4 cells/well, for the A23187-induced assay) or a 48-well plate (3 × 10^4 cells/well, for the antigen-induced assay) overnight. The cells for the antigen-induced assay were sensitized with anti-DNP IgE (0.5 μg/mL; Sigma) during seeding overnight. RBL-2H3 cells were then treated with the samples (0.5, 5, and 50 μM) for 30 min in Tyrode’s buffer with a maximal DMSO dose of 0.5%. For the A23187-induced assay, the cells were activated by addition of A23187 (final concentration 0.5 μM), while cells for the antigen-induced assay were activated by the addition of DNP-BSA (final concentration 100 ng/mL) for 30 min. Azelastine (10 μM) served as the positive control. The amount of β-hexosaminidase was detected using the method utilizing p-NAG as the substrate according to the procedure described before.

For data set [2], the system named is RBL-2H3 cells. Put plainly: Antigen (anti-DNP IgE plus DNP-BSA)-induced degranulation (β-hexosaminidase release) assay. The class given is cell-based. The note with it: Rattus norvegicus; for IC50: RBL-2H3, read-out: Inhibition of Antigen-Induced Degranulation IC50. The method, then:
as §1

Data set [3] is described as follows: MTT cell viability assay in mast cells. The data set is classed as cell-based. The settings on record: rat. The method, then:
as §1
The viability of the RBL-2H3 cells in the presence of the samples (10 and 100 μM) was determined using the methylthiazole tetrazolium (MTT) assay according to a previous method.
(Tetrazolium assays rely on reduction of a dye to a coloured formazan, in cell work by metabolically active cells.)

The test system of data set [4] is human neutrophils. As to the kind of experiment: Elastase release in fMLF/CB-induced human neutrophils. The class given is cell-based. The settings on record: Neutrophil, read-out: Elastase Release in Human Neutrophils IC50. The method, then: (§2) The human neutrophils were obtained from venous blood of healthy adult volunteers (20–30 years old) following the reported procedure. Elastase release by the activated neutrophils was determined using elastase substrate (N-methoxysuccinyl-Ala-Ala-Pro-Val-p-nitroanilide) according to the previous methodology. The tested samples’ concentration was 1 to 10 μM and the total incubation time in fMLF/CB-induced cells was 15 min. Genistein was used as the positive control. Cytotoxicity test was performed based on the release of LDH stored in the cytoplasm out of the cells. Briefly, preheated (37 °C, 5 min, 1 mM CaCl2) human neutrophils (6 × 10^5 cells·mL^−1) were incubated with test compounds for 15 min. Total LDH release control was represented as completely lysed cells by 0.1% of Triton X-100 solution incubated with cells for 30 min. The cells were centrifuged at 4 °C for 200× g for 8 min, and LDH reagent was added to supernatant and reacted at room temperature for 30 min in the dark. The absorbance was then measured at 492 nm, and the LDH release was calculated and compared to the total LDH release set as 100%.

Data set [5] is described as follows: Lactate dehydrogenase (LDH) viability assay in human neutrophils. The data set is classed as cell-based. The settings on record: human, human neutrophils; 10 μM; based on lactate dehydrogenase release; mean ± S.E.M. (n = 3); read-out: Cell viability, Human Neutrophils. The method, then: as §2
Data set [6] has as its system human neutrophils. Described as above. The data set is classed as cell-based. The note with it: cell viability assay based on lactate dehydrogenase release. The method, then: as §2
For data set [7], the target named is T1, human neutrophil elastase (Homo sapiens, UniProt P08246).
T1 construct: followed by fMLF (0.1 μM) for 20 min to release the elastase from the cells; endogenous in cells; host or cells: human neutrophils; degranulation supernatant after CB/fMLF stimulation
T1 sequence (P08246 30-247 limits assumed): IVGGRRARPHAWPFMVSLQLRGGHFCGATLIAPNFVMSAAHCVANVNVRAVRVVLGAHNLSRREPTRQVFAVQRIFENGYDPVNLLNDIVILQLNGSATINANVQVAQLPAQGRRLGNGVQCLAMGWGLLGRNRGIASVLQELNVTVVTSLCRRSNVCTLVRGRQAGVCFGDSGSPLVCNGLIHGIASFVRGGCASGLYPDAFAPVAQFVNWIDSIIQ
Put plainly: Elastase enzymatic activity (cell-free). The class given is biochemical. The settings on record: mean ± S.E.M. (n = 3). The method, then:
The compounds were further tested for direct inhibition of elastase enzymatic activity. The neutrophil suspension (6 × 10^5 cells mL^−1) was preheated for 5 min in the presence of CaCl2 (1 mM) at 37 °C. Priming agent CB (1.5 μg mL^−1) was added for 2 min, followed by fMLF (0.1 μM) for 20 min to release the elastase from the cells. After centrifugation at 1000 g for 5 min at 4 °C, the supernatant containing elastase was preheated at 37 °C for 5 min, and the test compounds were added. Then, 0.1 mM of substrate methoxysuccinyl-Ala-Ala-Pro-Val-p-nitroanilide was added for 10 min. The effect of the compounds on elastase enzymatic activity was quantified by measuring the absorbance at 405 nm.

On the set-up of data set [8]: method as in PMID 29763312. The note with it: via reducing the levels of histamine and mouse mast cell proteinases; cited from earlier work.
[9] abbreviates: RBL-2H3, read-out: Inhibition of A23187-induced degranulation.
[10] abbreviates: RBL-2H3, read-out: Inhibition of antigen-induced degranulation.
Where [11] appears, read: 100 μM, MTT viability assay, compared with untreated control (DMSO), n = 3, read-out: Cell Viability, RBL-2H3.

By IC50 is commonly meant the concentration needed to halve the response being measured. By viability is commonly meant a read-out of living cells in per cent, often relative to untreated cells. Consider `CC(C)=CCc1cc(C=O)ccc1O` [4-hydroxy-3-(3-methylbut-2-enyl)benzaldehyde], for which the IC50 with RBL-2H3 cells [1] is over 100 µM; in the data set on RBL-2H3 cells [2], over 100 µM; in the data set on human neutrophils [4] (Homo sapiens) it was over 10 µM. In addition, the viability at 100 µM in data set [3] was over 90%.
By inhibition is commonly meant how much of the control response was suppressed. Turning to `CN1CCCC(n2nc(Cc3ccc(Cl)cc3)c3ccccc3c2=O)CC1` (stereo not drawn) [Azelastine, reference compound], the inhibition at 10 µM came to 34.5% with RBL-2H3 cells [1] (RBL-2H3, 10 μM, mean ± S.E.M. (n = 3), read-out: Inhibition of A23187-induced degranulation) and 35.5% in the data set on RBL-2H3 cells [2] (RBL-2H3, 10 μM, mean ± S.E.M. (n = 3), read-out: Inhibition of antigen-induced degranulation).
Regarding `COC(=O)[C@]1(Cc2ccc(O)c(CC=C(C)C)c2)OC(=O)C(O)=C1c1ccc(O)cc1` [Butyrolactone I (1), butyrolactone I], the IC50 with RBL-2H3 cells [1] came to 39.7 µM; in data set [7] it was 16.7 ± 2.64 µM; in the data set on RBL-2H3 cells [2] it was 41.6 µM; in the data set with human neutrophils [4] (Homo sapiens) it was 2.3 ± 0.27 µM. Besides, the inhibition at 10 µM in the data set with RBL-2H3 cells [1] (setting [9]) worked out at 26%; with RBL-2H3 cells [2] (setting [10]), 30%. For the same compound, the figures for the inhibition at 100 µM in the data set with RBL-2H3 cells [1] (setting [9]) and with RBL-2H3 cells [2] (setting [10]) were 98.7% and 87%, respectively. Further, the viability at 15 min, 10 µM in data set [5] is 94.1 ± 2.31%. In addition, the “Toxicity to human neutrophils (in words)” value with human neutrophils [6] is on record as “non-toxic”. The “Effect on ovalbumin-induced allergy symptoms” value in data set [8] is given as “alleviating ovalbumin-induced allergy symptoms”. For the same compound, the viability at 100 µM in data set [3] (setting [11]) was over 90%.
On to `COC(=O)[C@]1(Cc2ccc(O)c(CC3OC3(C)C)c2)OC(=O)C(O)=C1c1ccc(O)cc1` (stereo partly drawn) [Butyrolactone III (2), butyrolactone III], for which the IC50 is over 100 µM with RBL-2H3 cells [1], over 30 µM in data set [7], over 100 µM in the data set on RBL-2H3 cells [2] and over 10 µM in the data set with human neutrophils [4] (Homo sapiens). Besides, the viability at 15 min, 10 µM in data set [5] worked out at 98.2 ± 1.77%. Further, the “Toxicity to human neutrophils (in words)” value in the data set on human neutrophils [6] was “non-toxic”. In addition, the viability at 100 µM in data set [3] (setting [11]) was over 90%.
For `O=c1c(-c2ccc(O)cc2)coc2cc(O)cc(O)c12` [Genistein, reference compound], the IC50 with human neutrophils [4] (fMLF/cytochalasin B (CB)-induced human neutrophils, mean ± S.E.M. (n = 3)) amounted to 32.7 µM.
For the compound `C=C1C[C@]2(O)[C@@]3(C)CCC(=O)C(C)(C)C3=C(O)C(=O)[C@@]2(C)[C@@H]2C(=O)O[C@@](C)(C(=O)OC)C(=O)[C@@]12C` [Terretonin (3), terretonin], the IC50 was over 100 µM with RBL-2H3 cells [1], over 100 µM in the data set on RBL-2H3 cells [2] and over 10 µM with human neutrophils [4] (Homo sapiens). Further, the viability at 100 µM in data set [3] (setting [11]) is over 90%.
